One test addresses T1, CCR2 (Homo sapiens, UniProt P41597).
T1 construct: CCR2 expressing THP-1 cells were centrifuged and resuspended in assay buffer; host or cells: THP-1
T1 sequence (P41597 1-360 isoform P41597-2): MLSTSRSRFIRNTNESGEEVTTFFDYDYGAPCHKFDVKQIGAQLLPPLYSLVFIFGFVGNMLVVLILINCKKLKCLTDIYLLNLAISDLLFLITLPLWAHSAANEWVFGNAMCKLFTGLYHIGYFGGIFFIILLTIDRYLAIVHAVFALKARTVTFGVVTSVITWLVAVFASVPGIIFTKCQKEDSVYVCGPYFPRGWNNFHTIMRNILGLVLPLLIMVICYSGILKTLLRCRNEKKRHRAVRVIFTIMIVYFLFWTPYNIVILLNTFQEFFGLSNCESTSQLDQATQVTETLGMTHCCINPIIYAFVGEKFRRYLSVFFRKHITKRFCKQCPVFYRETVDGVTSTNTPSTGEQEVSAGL
The test can be described thus: CCR2 activity in one of the chemotaxis, binding or calcium mobilization assays. The format is cell-based. Conditions: assay not specified per compound. The protocol:
Conventional migration assay was used to determine the efficacy of potential receptor antagonists in blocking migration mediated through chemokines (such as CCR2 or CCR9). This assay was routinely performed using the ChemoTX® microchamber system with a 5-μm pore-sized polycarbonate membrane. To begin such an assay, chemokine expressing cells (such as THP-1 cells for CCR2 assay or MOLT-4 cells for CCR9 assay) were harvested by centrifugation of cell suspension at 1000 RPM on a GS-6R Beckman centrifuge. The cell pellet was resuspended in chemotaxis buffer (HBSS with 0.1% BSA) at 10×10^6 cells/mL for CCR2 assay (5×10^6 cells/mL for CCR9 assay). Test compounds at desired concentrations were prepared from 10 mM stock solutions by serial dilutions in chemotaxis buffer. An equal volume of cells and compounds were mixed and incubated at room temperature for 15 minutes. Afterwards, 20 μL of the mixture was transferred onto the porous membrane of a migration microchamber, with 29 μL of chemokine ligand (0.1 nM chemokine MCP-1 protein for CCR2 assay or […] chemokine TECK protein for CCR9 assay) placed at the lower chamber. Following an incubation at 37° C. (90-minute for CCR2; 150-minute for CCR9), during which cells migrated against the chemokine gradient, the assay was terminated by removing the cell drops from atop the filter. To quantify cells migrated across the membrane, 5 μL of 7×CyQUANT® solution was added to each well in the lower chamber, and the fluorescence signal measured on a Spectrafluor Plus fluorescence plate reader (TECAN, Durham, N.C.). The degree of inhibition was determined by comparing migration signals between compound-treated and untreated cells. IC50 calculation was further performed by non-linear squares regression analysis using Graphpad Prism (Graphpad Software, San Diego, Calif.).
Calcium flux assay measures an increase in intracellular calcium following ligand-induced receptor activation. In the screen of chemokine antagonists, it was used as a secondary assay carried out on a FLIPR® machine (Molecular Devices, Mountain View, Calif.). To begin an assay, chemokine expressing cells (such as THP-1 cells for CCR2 assay or MOLT-4 cells for CCR9 assay) were harvested by centrifugation of cell suspension, and resuspended to 1.5×10^6 cells/mL in HBSS (with 1% fetal calf serum). Cells were then labeled with a calcium indicator dye Fluo-4 AM for 45 minutes at 37° C. with gentle shaking. Following incubation, cells were pelletted, washed once with HBSS and resuspended in the same buffer at a density of 1.6×10^6 cells/mL. One hundred microliters of labeled cells were mixed with 10 μL of test compound at the appropriate concentrations on an assay plate. Chemokine protein (MCP-1 at a final concentration of 0.1 nM for CCR2 assay or TECK at a final concentration of 25 nM for CCR9 assay) to activate the receptor. The degree of inhibition was determined by comparing calcium signals between compound-treated and untreated cells. IC50 calculations were further performed by non-linear squares regression analysis using Graphpad Prism (Graphpad Software, San Diego, Calif.).
Ligand binding assay was used to determine the ability of potential CCR2 antagonists to block the interaction between CCR2 and its ligand MCP-1. CCR2 expressing THP-1 cells were centrifuged and resuspended in assay buffer (20 mM HEPES pH 7.1, 140 mM NaCl, 1 mM CaCl2, 5 mM MgCl2, and with 0.2% bovine serum albumin) to a concentration of 2.2×10^5 cells/mL. Binding assays were set up as follows. […]
(Calcium flux is commonly read through the fluorescence of an indicator in the cells.)

The next test addresses T2, CCR9 (Homo sapiens, UniProt P51686).
T2 construct: chemokine expressing cells (such as THP-1 cells for CCR2 assay or MOLT-4 cells for CCR9 assay); host or cells: MOLT-4
T2 sequence (P51686 1-369): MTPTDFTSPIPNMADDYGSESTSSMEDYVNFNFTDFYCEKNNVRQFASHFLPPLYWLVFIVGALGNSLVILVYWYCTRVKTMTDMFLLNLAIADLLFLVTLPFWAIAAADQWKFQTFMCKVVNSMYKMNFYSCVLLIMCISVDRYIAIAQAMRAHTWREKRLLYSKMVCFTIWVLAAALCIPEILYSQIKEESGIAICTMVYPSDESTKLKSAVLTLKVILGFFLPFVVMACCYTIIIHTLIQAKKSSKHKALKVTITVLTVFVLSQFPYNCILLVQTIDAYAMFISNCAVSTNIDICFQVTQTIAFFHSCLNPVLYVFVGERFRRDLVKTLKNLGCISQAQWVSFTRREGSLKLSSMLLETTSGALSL
Put plainly: CCR9 activity in one of the chemotaxis, binding or calcium mobilization assays. The class given is cell-based. The note with it: assay not specified per compound. The method in brief: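 Chemotaxis: THP-1 cells (CCR2, 0.1 nM MCP-1, 90 min) or MOLT-4 cells (CCR9, 50 nM TECK, 150 min) preincubated with compound 15 min RT, migration at 37 °C through 5-μm membrane, CyQUANT read; IC50 by nonlinear regression. Calcium flux: Fluo-4-loaded cells, 0.1 nM MCP-1 or 25 nM TECK. Binding: THP-1, ~50 pM [125I]MCP-1, 3 h, 4 °C.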

These results are taken from US8153818B2, “Triazolyl phenyl benzenesulfonamides” (ChemoCentryx, Inc., priority 2006, dated 2012).

Where only a bound is given, the exact number is not on record here.

As for `O=S(=O)(Nc1cc(Cl)ccc1-c1nncn1-c1cc[nH]n1)c1ccc(Cl)c(C(F)(F)F)c1` [Compound 157], the IC50 at CCR2 was under 1000 nM.

`O=S(=O)(Nc1cc(Cl)ccc1-c1nncn1-c1ccccc1)c1ccc(Cl)c(C(F)(F)F)c1` [Compound 159, 4-chloro-N-(5-chloro-2-(4-phenyl-4H-1,2,4-triazol-3-yl)phenyl)-3-(trifluoromethyl)benzenesulfonamide]: at CCR2, the concentration for half-maximal inhibition (IC50) was under 1000 nM.

As for `CCc1nnc(-c2cc(Cl)c(F)cc2NS(=O)(=O)c2ccc(C(C)(C)C)cc2)n1C` [Compound 110, 4-tert-butyl-N-(4-chloro-2-(5-ethyl-4-methyl-4H-1,2,4-triazol-3-yl)-5-fluorophenyl)benzenesulfonamide], the IC50 on CCR9 is under 1000 nM.

`COCc1nnc(-c2cc(Cl)c(F)cc2NS(=O)(=O)c2ccc(C(C)(C)C)cc2)n1C1CCOC1` (centres unmarked) [Compound 52, 4-tert-butyl-N-(4-chloro-5-fluoro-2-(5-(methoxymethyl)-4-(tetrahydrofuran-3-yl)-4H-1,2,4-triazol-3-yl)phenyl)benzenesulfonamide]: on CCR9, the concentration for half-maximal inhibition (IC50) was under 1000 nM.

For the molecule `Cc1nnc(-c2cc(Cl)ccc2NS(=O)(=O)c2ccc(C(C)(C)C)cc2)n1C1CCN(C(N)=O)CC1` [Compound 94], the IC50 on CCR9 was under 1000 nM.

As to `CCOC(=O)Cc1nnc(-c2cc(Cl)c(F)cc2NS(=O)(=O)c2ccc(C(C)(C)C)cc2)n1C` [Compound 64, ethyl 2-(5-(2-(4-tert-butylphenylsulfonamido)-5-chloro-4-fluorophenyl)-4-methyl-4H-1,2,4-triazol-3-yl)acetate], the IC50 at CCR9 was under 1000 nM.

Consider `Cn1c(CNC2CCOCC2)nnc1-c1cc(Cl)c(F)cc1NS(=O)(=O)c1ccc(C(C)(C)C)cc1` [Compound 152], for which the IC50 on CCR9 was under 1000 nM.

Consider `Cn1c(CCO)nnc1-c1cc(Cl)c(F)cc1NS(=O)(=O)c1ccc(C(C)(C)C)cc1` [Compound 137, 4-tert-butyl-N-(4-chloro-5-fluoro-2-(5-(2-hydroxyethyl)-4-methyl-4H-1,2,4-triazol-3-yl)phenyl)benzenesulfonamide], for which the IC50 at CCR9 is under 1000 nM.

`COCCc1nnc(-c2cc(Cl)c(F)cc2NS(=O)(=O)c2ccc(C(C)(C)C)cc2)n1C` [Compound 62, 4-tert-butyl-N-(4-chloro-5-fluoro-2-(5-(2-methoxyethyl)-4-methyl-4H-1,2,4-triazol-3-yl)phenyl)benzenesulfonamide]: the IC50 at CCR9 was under 1000 nM.

Regarding `Cc1nnc(-c2ccc(F)cc2NS(=O)(=O)c2ccc(C(C)(C)C)cc2)n1C(C)C` [Compound 24, 4-tert-butyl-N-(5-fluoro-2-(4-isopropyl-5-methyl-4H-1,2,4-triazol-3-yl)phenyl)benzenesulfonamide], the 50% inhibitory concentration (IC50) at CCR9 is under 1000 nM.

With `CCn1cnnc1-c1cc(Cl)ccc1NS(=O)(=O)c1ccc(C(C)(C)C)cc1` [Compound 31, 4-tert-butyl-N-(4-chloro-2-(4-ethyl-4H-1,2,4-triazol-3-yl)phenyl)benzenesulfonamide], at CCR9, the IC50 was under 1000 nM.

For the molecule `CC(C)n1c(-c2cc(Cl)ccc2NS(=O)(=O)c2ccc(C(C)(C)C)cc2)nnc1C1CCOCC1` [Compound 46], the IC50 at CCR9 was under 1000 nM.

As for `Cc1nnc(-c2cc(Cl)ccc2NS(=O)(=O)c2ccc(C(C)(C)C)cc2)n1CCN` [Compound 83, N-(2-(4-(2-aminoethyl)-5-methyl-4H-1,2,4-triazol-3-yl)-4-chlorophenyl)-4-tert-butylbenzenesulfonamide], the IC50 on CCR9 is under 1000 nM.

Regarding `Cc1nnc(-c2cc(Cl)ccc2NS(=O)(=O)c2ccc(N3CCOCC3)c(F)c2)n1C` [Compound 135, N-(4-chloro-2-(4,5-dimethyl-4H-1,2,4-triazol-3-yl)phenyl)-3-fluoro-4-morpholinobenzenesulfonamide], at CCR9, the IC50 was under 1000 nM.

On to `Cc1nnc(-c2cc(Cl)ccc2NS(=O)(=O)c2ccc(C(C)(C)C)cc2)n1[C@@H](C)CO` [Compound 26], for which, at CCR9, the IC50 was under 1000 nM.

`CCc1nnc(-c2cc(C#N)ccc2NS(=O)(=O)c2ccc(C(C)(C)C)cc2)n1C` [Compound 128, 4-tert-butyl-N-(4-cyano-2-(5-ethyl-4-methyl-4H-1,2,4-triazol-3-yl)phenyl)benzenesulfonamide]: at CCR9, the IC50 was under 1000 nM.

For `Cn1c(CCS(C)(=O)=O)nnc1-c1cc(Cl)c(F)cc1NS(=O)(=O)c1ccc(C(C)(C)C)cc1` [Compound 89, 4-tert-butyl-N-(4-chloro-5-fluoro-2-(4-methyl-5-(2-(methylsulfonyl)ethyl)-4H-1,2,4-triazol-3-yl)phenyl)benzenesulfonamide], at CCR9, the IC50 was under 1000 nM.

Regarding `CC(C)(C)c1ccc(S(=O)(=O)Nc2cc(F)c(Cl)cc2-c2nncn2[C@H]2CCNC2=O)cc1` [Compound 90], at CCR9, the IC50 was under 1000 nM.

On to `CC(C)c1nnc(-c2cc(Cl)ccc2NS(=O)(=O)c2ccc(C(C)(C)C)cc2)n1C(C)C` [Compound 11, 4-tert-butyl-N-(4-chloro-2-(4,5-diisopropyl-4H-1,2,4-triazol-3-yl)phenyl)benzenesulfonamide], for which the IC50 on CCR9 is under 1000 nM.

As for `CC(C)n1c(CN(C)C)nnc1-c1cc(Cl)ccc1NS(=O)(=O)c1ccc(C(C)(C)C)cc1` [Compound 98, 4-tert-butyl-N-(4-chloro-2-(5-((dimethylamino)methyl)-4-isopropyl-4H-1,2,4-triazol-3-yl)phenyl)benzenesulfonamide], the IC50 on CCR9 was under 1000 nM.

As to `CC(C)n1c(-c2cc(Cl)ccc2NS(=O)(=O)c2ccc(C(C)(C)C)cc2)nnc1C1(C)CCOCC1` [Compound 150], the IC50 on CCR9 is under 1000 nM.

Consider `CCNCc1nnc(-c2cc(Cl)c(F)cc2NS(=O)(=O)c2ccc(C(C)(C)C)cc2)n1C` [Compound 48, 4-tert-butyl-N-(4-chloro-2-(5-((ethylamino)methyl)-4-methyl-4H-1,2,4-triazol-3-yl)-5-fluorophenyl)benzenesulfonamide], for which, at CCR9, the IC50 is under 1000 nM.

Consider `CC(C)Oc1ccc(S(=O)(=O)Nc2ccc(Cl)cc2-c2nncn2[C@H]2CCNC2)cc1` [Compound 134, (S)—N-(4-chloro-2-(4-(pyrrolidin-3-yl)-4H-1,2,4-triazol-3-yl)phenyl)-4-isopropoxybenzenesulfonamide], for which the IC50 on CCR9 is under 1000 nM.

By IC50 is commonly meant the point on the concentration scale where inhibition reaches its midpoint.
